Converted amounts (≈) assume the structure as drawn.
Columns and labels:
Podosphaera fuliginea = experiment: Fungicidal activity against Podosphaera fuliginea; assay type: functional, organism-based
Myzus persicae = experiment: Insecticidal activity against Myzus persicae (green peach aphid) assessed as mortality; assay type: functional
[1] = tested on: Pseudoperonospora cubensis; experiment: Fungicidal activity against Pseudoperonospora cubensis; assay type: functional, organism-based

Compound	EC50 (Podosphaera fuliginea) [ppm]	LC50 (Myzus persicae) [µg/mL]	EC50 [1] [ppm]
CO[C@H](c1cc(C)no1)c1ccccc1/C=N/N=C(\C)c1ccc(Cl)c(Cl)c1	8.8	> 250	> 500
CO[C@@H](c1cc(C)no1)c1ccccc1/C=N/N=C(\C)c1ccc(Cl)c(Cl)c1	0.7	20 (≈ 48 µM)	16
COC(c1cc(C)no1)c1ccccc1/C=N/N=C(\C)c1ccc(Cl)c(Cl)c1 (racemic)	2	53 (≈ 127 µM)	32

— ChEMBL document CHEMBL3046225, “Effects of Enantiomerism on Fungicidal and Insecticidal Activities of (-Methoxybenzyl)isoxazoles” (J Pestic Sci, 2000)
